Legend:
[1] = test system: HDAC; experiment: HDAC inhibition; type: biochemical; details: for HDAC Inhibition 1 μM: compound at 1 μM; for HDAC Inhibition 10 μM: compound at 10 μM
[2] = test system: MDAMB-231/U 251; experiment: Anti-cancer screen (MTT), MDAMB-231/U 251; type: cell-based; details: for CC50: 48 h, read-out: MDAMB-231/U 251 LC50; for GI50 / IC (TGI): 48 hours with compound, MTT, tested at 0.01-100 µM
Procedure, shortened: (§1)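 Seed cells at 5000 per well and let them attach for 24 h; add compound at five final concentrations from 0.01 to 100 µM; incubate 48 h; add MTT for 3 h, dissolve formazan in DMSO and read at 570 nm. GI50, TGI and LC50 follow from percent growth relative to T0 and untreated wells.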

[3] = test system: HCT116; experiment: Anti-cancer screen (MTT), HCT116; type: cell-based; details: Homo sapiens, HCT-116, 48 hours with compound, tested at 0.01-100 µM
Procedure, shortened: as §1

[4] = test system: NCIH460, HCT116, MDAMB-231/U 251; experiment: Anti-cancer screen, mean GI50 over the cell lines; type: cell-based; details: in µM
Procedure, shortened: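 Growth was scored by MTT absorbance at 570 nm relative to control wells and a pre-treatment T0 reading. Compounds were tested at five final concentrations (0.01–100 µM, triplicate) for 48 h on NCIH460, HCT116 and U251 cells, each plated at 5000 cells/well 24 h before dosing.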

[5] = test system: NCIH460; experiment: Anti-cancer screen (MTT), NCIH460; type: cell-based; details: Homo sapiens, NCI-H460, 48 hours with compound, tested at 0.01-100 µM
Procedure, shortened: as §1

Row | melting point [°C] | Compound | HDAC Inhibition 1 μM [1] | HDAC Inhibition 10 μM [1] | CC50 [2] [µM] | GI50 [2] [µM] | IC (TGI) [2] [µM] | GI50 [3] [µM] | IC (TGI) [3] [µM] | LC50 (concentration giving 50% net cell kill relative to T0) [3] [µM] | Mean GI50 [4] | GI50 [5] [µM] | IC (TGI) [5] [µM] | LC50 [5] [µM]
1 | 143.6 to 144.6 | O=C(NCc1ccc(C(=O)N2CCN(c3ncccn3)CC2)cc1)OCc1cccs1 [Example 72, 2-Thienylmethyl{4-[(4-pyrimidin-2-ylpiperazin-1-yl)carbonyl]benzyl}carbamate] | 8.08 | 8.40 |  |  |  |  |  |  |  |  |  | 
2 | 129.3 to 130.3 | O=C(NCc1ccc(C(=O)N2CCN(c3ccccn3)CC2)cc1)OCc1cccs1 [Example 71, 2-Thienylmethyl{4-[(4-pyridin-2-ylpiperazin-1-yl)carbonyl]benzyl}carbamate] | 9.14 | 7.67 |  |  |  |  |  |  |  |  |  | 
3 | 90.6 to 91.5 | O=C(NCc1ccc(C(=O)N2CCC[C@H]2C(=O)NO)cc1)OCc1cccs1 [Example 99, 2-Thienylmethyl[4-({(2S)-2-[(hydroxyamino)carbonyl]pyrrolidin-1-yl}carbonyl)benzyl]carbamate] |  |  |  |  |  |  |  |  |  |  |  | 
4 | 162.6 to 163.4 | O=C(NCc1ccc(C(=O)N[C@@H](Cc2ccc(O)cc2)C(=O)NO)cc1)OCc1cccs1 [Example 100, 2-Thienylmethyl[4-({[2-(hydroxyamino)-1-(4-hydroxybenzyl)-2-oxoethyl]amino}carbonyl)benzyl]carbamate] | 13.63 | 40.64 |  |  |  |  |  |  |  |  |  | 
5 |  | Nc1ccccc1NC(=O)Cc1csc(NC(=O)OCc2nccs2)n1 [Example 23, 1,3-Thiazol-2-ylmethyl(4-{2-[(2-aminophenyl)amino]-2-oxoethyl}-1,3-thiazol-2-yl)carbamate] | 11.34 | 5.18 | > 100 | 31 | > 100 | > 100 | > 100 | > 100 | >100 | > 100 | > 100 | > 100
6 |  | O=C(NCc1ccc(C(=O)N2CCN(Cc3ccc4c(c3)OCO4)CC2)cc1)OCc1nccs1 [Example 57, 1,3-Thiazol-2-ylmethyl(4-{[4-(1,3-benzodioxol-5-ylmethyl)piperazin-1-yl]carbonyl}benzyl)carbamate] | −1.94 | −1 | > 100 | 0.4 | 0.9 | 7 | > 100 | > 100 | 2.6 | 0.4 | 0.9 | > 100
7 |  | O=C(NCc1ccc(C(=O)Nc2nnc(C3CC3)s2)cc1)OCc1c(F)cc(F)cc1F [Example 63, 2,4,6-Trifluorobenzyl(4-{[(5-cyclopropyl-1,3,4-thiadiazol-2-yl)amino]carbonyl}benzyl)carbamate] |  | 0.17 | > 100 | 0.5 | 5 | 16 | > 100 | > 100 | 5.52 | 0.05 | 6 | > 100
8 |  | O=C(CCCCCNC(=O)Cc1csc(NC(=O)OCc2nc3ccccc3s2)n1)NO [Example 90, 1,3-Benzothiazol-2-ylmethyl[4-(2-{[6-(hydroxyamino)-6-oxohexyl]amino}-2-oxoethyl)-1,3-thiazol-2-yl]carbamate] | 61.63 | 98.85 | 98 | 0.06 | 48 | 38 | 65 | > 100 | 25.35 | 38 | 98 | > 100
9 |  | O=C(Cc1csc(NC(=O)c2ccc(CNC(=O)OCc3cccs3)cc2)n1)NO [Example 101, 2-Thienylmethyl{4-[({4-[2-(hydroxyamino)-2-oxoethyl]-1,3-thiazol-2-yl}amino)carbonyl]benzyl}carbamate] | 8.52 | 45.50 | > 100 | > 100 | > 100 | 14 | > 100 | > 100 | >100 | > 100 | > 100 | > 100
10 |  | O=C(CCCNC(=O)Cc1csc(NC(=O)OCc2ccncc2)n1)NO [Example 97, Pyridin-4-ylmethyl[4-(2-{[4-(hydroxyamino)-4-oxobutyl]amino}-2-oxoethyl)-1,3-thiazol-2-yl]carbamate] | 5.02 | 5.80 | > 100 | > 100 | > 100 | > 100 | > 100 | > 100 | >100 | 100 | > 100 | > 100
11 |  | CCOC(=O)Cc1csc(NC(=O)c2ccc(CNC(=O)OCc3cccs3)cc2)n1 [Example 54, Ethyl{2-[(4-{[(2-thienylmethyloycarbonyl)amino]methyl}benzoyl)amino]-1,3-thiazol-4-yl}acetate] | 0.6 | 8.1 | > 100 | 0.2 | 62 | 3 | 9.3 | 97 | 1.1 | 0.05 | 0.8 | 91

Source: US20100152188A1, “Novel Heterocyclic Compounds” (priority 2005, published 2010)
